# In paper PMC9090415, “Discovery of small molecule inhibitors of Plasmodium falciparum apicoplast DNA polymerase” (Journal of Enzyme Inhibition and Medicinal Chemistry, 2022):
# Target: P. falciparum apicoplast DNA polymerase (Pf-apPOL) (Plasmodium falciparum, UniProt Q8ILY1)
# Test: Fluorescence-based high-throughput DNA polymerase assay (molecular beacon), primary screen and dose-response
# Format: biochemical
# In short: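 Single-point screening used 10 µM compound with 20 nM polymerase, 20 nM hairpin substrate and 6 µM dNTPs for 90 min at 25 °C. Confirmatory titrations (2.5–80 µM) followed fluorescence at three times, and IC50 was derived from a fit including a cooperativity term n.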
# [1] = supplemental file 2, sheet IC50 nontoxic compounds; Pf-apPOL
# Chain of P. falciparum apicoplast DNA polymerase (Pf-apPOL) (Q8ILY1 entry or part of it): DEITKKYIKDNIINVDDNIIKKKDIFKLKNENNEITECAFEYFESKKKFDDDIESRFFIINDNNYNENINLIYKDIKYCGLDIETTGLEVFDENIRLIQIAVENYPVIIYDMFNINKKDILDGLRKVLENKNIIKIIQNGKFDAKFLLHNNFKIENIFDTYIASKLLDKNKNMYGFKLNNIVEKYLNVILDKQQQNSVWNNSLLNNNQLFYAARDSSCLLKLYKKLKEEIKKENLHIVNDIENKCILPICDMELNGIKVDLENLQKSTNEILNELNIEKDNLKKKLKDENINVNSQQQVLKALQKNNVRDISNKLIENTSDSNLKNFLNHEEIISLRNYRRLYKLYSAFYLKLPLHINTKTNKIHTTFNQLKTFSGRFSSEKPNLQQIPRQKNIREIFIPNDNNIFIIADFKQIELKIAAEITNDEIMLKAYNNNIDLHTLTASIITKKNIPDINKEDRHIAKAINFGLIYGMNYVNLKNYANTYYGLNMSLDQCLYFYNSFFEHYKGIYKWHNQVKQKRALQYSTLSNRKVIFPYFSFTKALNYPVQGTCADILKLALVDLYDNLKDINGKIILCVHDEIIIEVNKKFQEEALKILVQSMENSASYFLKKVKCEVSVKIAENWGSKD
structure (smiles),measurement,setting,value
C=CC1=C(C)c2cc3[nH]c(cc4nc(cc5[nH]c(cc1n2)c(C)c5CCC(=O)O)C(CCC(=O)O)=C4C)c(C)c3C=C [Molecule 91],IC50,[1],< 2.5 µM
CCCCCCCCCCCCCCCCCC(=O)CCN(C)C [KU0271928],% inhibition Apo pol 10',DRC-1; 10'; concentration 2.5,4.376%
same,% inhibition Apo pol 10',DRC-1; 10'; concentration 5,8.002%
same,% inhibition Apo pol 10',DRC-1; 10'; concentration 10,14.7164%
same,% inhibition Apo pol 10',DRC-1; 10'; concentration 20,22.8957%
same,% inhibition Apo pol 10',DRC-1; 10'; concentration 40,29.808%
same,% inhibition Apo pol 10',DRC-1; 10'; concentration 80,46.1524%
same,% inhibition Apol 90',DRC-1; 90'; concentration 2.5,3.047%
same,% inhibition Apol 90',DRC-1; 90'; concentration 5,4.9355%
same,% inhibition Apol 90',DRC-1; 90'; concentration 10,15.0466%
same,% inhibition Apol 90',DRC-1; 90'; concentration 20,24.954%
same,% inhibition Apol 90',DRC-1; 90'; concentration 40,42.2957%
same,% inhibition Apol 90',DRC-1; 90'; concentration 80,71.469%
same,% inhibition apPOL 180',DRC-1; 180'; concentration 2.5,2.105%
same,% inhibition apPOL 180',DRC-1; 180'; concentration 5,0.02519%
same,% inhibition apPOL 180',DRC-1; 180'; concentration 10,10.3787%
same,% inhibition apPOL 180',DRC-1; 180'; concentration 20,23.1469%
same,% inhibition apPOL 180',DRC-1; 180'; concentration 40,44.4373%
same,% inhibition apPOL 180',DRC-1; 180'; concentration 80,80.1406%
same,% inhibition Apol 40',"DRC-2, 40', concentration 5 (unit not given)",4%
same,% inhibition Apol 40',"DRC-2, 40', concentration 20 (unit not given)",13%
same,% inhibition apPOL 180',"DRC-2, 180', concentration 5 (unit not given)",4%
same,% inhibition apPOL 180',"DRC-2, 180', concentration 20 (unit not given)",13%
same,% inhibition Apo pol 5',DRC-2; 5'; concentration 2.5,0.736%
same,% inhibition Apo pol 5',DRC-2; 5'; concentration 5,1.37%
same,% inhibition Apo pol 5',DRC-2; 5'; concentration 10,2.68%
same,% inhibition Apo pol 5',DRC-2; 5'; concentration 20,5.52%
same,% inhibition Apo pol 5',DRC-2; 5'; concentration 40,18%
same,% inhibition Apo pol 5',DRC-2; 5'; concentration 80,37%
same,% inhibition Apol 40',DRC-2; 40'; concentration 2.5,2.22%
same,% inhibition Apol 40',DRC-2; 40'; concentration 5,4%
same,% inhibition Apol 40',DRC-2; 40'; concentration 10,4.59%
same,% inhibition Apol 40',DRC-2; 40'; concentration 20,13%
same,% inhibition Apol 40',DRC-2; 40'; concentration 40,28%
same,% inhibition Apol 40',DRC-2; 40'; concentration 80,61%
same,% inhibition ApPOL 90',DRC-2; 90'; concentration 2.5,1.86%
same,% inhibition ApPOL 90',DRC-2; 90'; concentration 5,3.32%
same,% inhibition ApPOL 90',DRC-2; 90'; concentration 10,2.69%
same,% inhibition ApPOL 90',DRC-2; 90'; concentration 20,12%
same,% inhibition ApPOL 90',DRC-2; 90'; concentration 40,30%
same,% inhibition ApPOL 90',DRC-2; 90'; concentration 80,67%
same,% inhibition apPOL 180',DRC-2; 180'; concentration 2.5,1.53%
same,% inhibition apPOL 180',DRC-2; 180'; concentration 5,4%
same,% inhibition apPOL 180',DRC-2; 180'; concentration 10,2.45%
same,% inhibition apPOL 180',DRC-2; 180'; concentration 20,13%
same,% inhibition apPOL 180',DRC-2; 180'; concentration 40,31%
same,% inhibition apPOL 180',DRC-2; 180'; concentration 80,73%
same,DNA Pol,"primary screen value of the 186 hits; unit not given; 90 min, 10 µM",46
same,DNA Pol,"primary screen value, head ""DNA Pol"", unit not given; 90 min, 10 µM",46
Cc1ccc(NC(=O)C2CCN(C(=O)c3cc4ccsc4[nH]3)CC2)c(Br)c1 [Molecule 14],IC50,[1],6.6 µM
"COc1ccccc1CCC(=O)N1CCc2c(nc3cc(-c4ccccc4)[nH]n3c2=O)C1 [Molecule 7, COc1ccccc1CCC(=O)N1CCc2c(C1)nc1n(c2=O)[nH]c(c1)c1ccccc1]",DNA Pol,"'DNA Pol'; screening value, unit not given; 90 min, 10 µM",40
same,% inhibition Apo pol 10',DRC-1; 10'; concentration 2.5,2.75%
same,% inhibition Apo pol 10',DRC-1; 10'; concentration 5,18%
same,% inhibition Apo pol 10',DRC-1; 10'; concentration 10,67%
same,% inhibition Apo pol 10',DRC-1; 10'; concentration 20,82%
same,% inhibition Apo pol 10',DRC-1; 10'; concentration 40,78%
same,% inhibition Apo pol 10',DRC-1; 10'; concentration 80,59%
same,% inhibition Apol 90',DRC-1; 90'; concentration 2.5,0.0541%
same,% inhibition Apol 90',DRC-1; 90'; concentration 5,9%
same,% inhibition Apol 90',DRC-1; 90'; concentration 10,54%
same,% inhibition Apol 90',DRC-1; 90'; concentration 20,73%
same,% inhibition Apol 90',DRC-1; 90'; concentration 40,72%
same,% inhibition Apol 90',DRC-1; 90'; concentration 80,63%
same,% inhibition apPOL 180',DRC-1; 180'; concentration 2.5,-3.58%
same,% inhibition apPOL 180',DRC-1; 180'; concentration 5,1.16%
same,% inhibition apPOL 180',DRC-1; 180'; concentration 10,38%
same,% inhibition apPOL 180',DRC-1; 180'; concentration 20,59%
same,% inhibition apPOL 180',DRC-1; 180'; concentration 40,58%
same,% inhibition apPOL 180',DRC-1; 180'; concentration 80,49%
same,% inhibition Apo pol 5',"DRC-2, 5', concentration 2.5",6%
same,% inhibition Apo pol 5',"DRC-2, 5', concentration 5",26%
same,% inhibition Apo pol 5',"DRC-2, 5', concentration 10",48%
same,% inhibition Apo pol 5',"DRC-2, 5', concentration 20",51%
same,% inhibition Apo pol 5',"DRC-2, 5', concentration 40",44%
same,% inhibition Apo pol 5',"DRC-2, 5', concentration 80",21%
same,% inhibition Apol 40',"DRC-2, 40', concentration 2.5",5.58%
same,% inhibition Apol 40',"DRC-2, 40', concentration 5",30%
same,% inhibition Apol 40',"DRC-2, 40', concentration 10",57%
same,% inhibition Apol 40',"DRC-2, 40', concentration 20",64%
same,% inhibition Apol 40',"DRC-2, 40', concentration 40",61%
same,% inhibition Apol 40',"DRC-2, 40', concentration 80",44%
same,% inhibition ApPOL 90',"DRC-2, 90', concentration 2.5",5%
same,% inhibition ApPOL 90',"DRC-2, 90', concentration 5",28%
same,% inhibition ApPOL 90',"DRC-2, 90', concentration 10",57%
same,% inhibition ApPOL 90',"DRC-2, 90', concentration 20",65%
same,% inhibition ApPOL 90',"DRC-2, 90', concentration 40",62%
same,% inhibition ApPOL 90',"DRC-2, 90', concentration 80",47%
same,% inhibition apPOL 180',"DRC-2, 180', concentration 2.5",3%
same,% inhibition apPOL 180',"DRC-2, 180', concentration 5",21%
same,% inhibition apPOL 180',"DRC-2, 180', concentration 10",48%
same,% inhibition apPOL 180',"DRC-2, 180', concentration 20",59%
same,% inhibition apPOL 180',"DRC-2, 180', concentration 40",55%
same,% inhibition apPOL 180',"DRC-2, 180', concentration 80",41%
same,% inhibition apPOL 180',conc 5 (unit not given); 180'; DRC-2,21%
same,% inhibition Apo pol 5',conc 10 (unit not given); 5'; DRC-2,48%
same,% inhibition Apol 40',conc 10 (unit not given); 40'; DRC-2,57%
same,% inhibition ApPOL 90',conc 10 (unit not given); 90'; DRC-2,57%
same,% inhibition apPOL 180',conc 10 (unit not given); 180'; DRC-2,48%
same,% inhibition apPOL 180',conc 20 (unit not given); 180'; DRC-2,59%
same,% inhibition apPOL 180',conc 20 (unit not given); 180'; first dose-response set,59%
same,% inhibition Apo pol 5',conc 40 (unit not given); 5'; DRC-2,44%
same,% inhibition Apo pol 5',conc 80 (unit not given); 5'; DRC-2,21%
same,% inhibition Apo pol 10',conc 80 (unit not given); 10'; first dose-response set,59%
same,% inhibition Apol 40',conc 80 (unit not given); 40'; DRC-2,44%
same,DNA Pol,"primary screen hit value, DNA Pol (186 hits); 90 min, 10 µM",40
COc1ccc(C2CC(c3ccc(Cl)cc3Cl)Nc3nc(N)nn32)cc1OC (stereo not drawn) [Molecule 43],IC50,[1],11.7 µM
COc1ccc(NC(=O)Cn2ccc3c(=O)[nH]ccc32)cc1 [Molecule 13],IC50,[1],7.09 µM
Cn1nc(-c2nc(-c3ccccc3)no2)c2c1CCN(C(=O)Cc1cccs1)C2 [Molecule 58],IC50,[1],18.5 µM
